{"source": "paper PMC3050021", "about": "(Cancer cell, 2010)", "key": {"[1]": {"tested_on": "SJSA-1 cells", "assay": "Cell viability SJSA-1", "format": "cell-based", "details": "0.3–20 µM, 24 h, CellTiter-Glo; HDM2-overexpressing osteosarcoma; Figure 3A"}, "[2]": {"tested_on": "SJSA-X cells", "assay": "Cell viability SJSA-X", "format": "cell-based", "details": "0.3–20 µM, 24 h, CellTiter-Glo; overexpresses HDM2 and HDMX; Figure 3B"}, "[3]": {"tested_on": "JEG-3 cells", "assay": "Cell viability JEG-3", "format": "cell-based, human", "details": "0.3–20 µM, 24 h, CellTiter-Glo; HDMX-overexpressing choriocarcinoma; Figure 3C"}, "[4]": {"tested_on": "MCF-7 cells", "assay": "Cell viability MCF-7", "format": "cell-based", "details": "0.3–20 µM, 24 h, CellTiter-Glo; HDM2- and HDMX-expressing breast cancer; Figure 3A–E"}, "[5]": {"tested_on": "HCT116 cells", "assay": "Cell viability HCT116", "format": "cell-based", "details": "0.3–20 µM, 24 h, CellTiter-Glo; HDM2- and HDMX-expressing colon cancer; Figure 3A–E"}, "[6]": {"tested_on": "HCT116 cells deficient in p53", "assay": "Cell viability HCT116 deficient in p53", "format": "cell-based", "details": "0.3–20 µM, 24 h, CellTiter-Glo; genetic deletion of p53; Figure 3F, 3G"}, "[7]": {"tested_on": "A431 cells (R273H p53)", "assay": "Cell viability A431", "format": "cell-based", "details": "0.3–20 µM, 24 h, CellTiter-Glo; R273H p53 mutation"}, "[8]": {"tested_on": "p53 (JEG-3 cells)", "assay": "p53 western analysis, JEG-3", "format": "cell-based, human", "details": "20 µM, 6 h, Figure 4A"}, "[9]": {"tested_on": "p53-HDMX complex (JEG-3 cells)", "assay": "Anti-HDMX immunoprecipitation, p53 western, JEG-3", "format": "cell-based, human"}, "[10]": {"tested_on": "caspase-3/7 (JEG-3 cells)", "assay": "Caspase-3/7 activation, JEG-3", "format": "cell-based, human", "details": "0.3–10 µM, 12 h, Caspase-3/7-Glo, Figure 5B"}, "[11]": {"tested_on": "p53-HDMX complex (MCF-7 cells)", "assay": "Anti-HDMX immunoprecipitation, p53 western, MCF-7", "format": "cell-based", "details": "Nutlin-3 20 µM alone or with 5 or 20 µM SAH-p53-8, 10 µM MG-132, 6 h, Figure 7A"}, "[12]": {"tested_on": "SJSA-X cells", "assay": "Combination / synergy study, SJSA-X", "format": "cell-based", "details": "SJSA-X (induced HDMX expression in isogenic SJSA-1), 0.5–20 µM; Figure 7G"}, "[13]": {"tested_on": "MCF-7 cells", "details": "ref Wade et al., 2008; cited from earlier work"}, "[14]": {"tested_on": "osteosarcoma murine xenograft", "details": "ref Vassilev et al., 2004; cited from earlier work"}, "[15]": {"tested_on": "HDM2", "details": "ref Vassilev et al., 2004; cited from earlier work"}, "[16]": {"details": "ref Vassilev et al., 2004; cited from earlier work"}, "[17]": {"tested_on": "p53 (MCF-7 cells)", "assay": "p53 western analysis, MCF-7", "details": "Nutlin-3 20 µM, 10 µM MG-132, 6 h, Figure 7A"}, "[18]": {"tested_on": "WS1 normal human fibroblasts", "assay": "Cell viability WS1 normal fibroblasts", "details": "0.3–20 µM, 24 h, CellTiter-Glo; Figure 3I"}}, "note": "Entries after “also recorded” stand apart in the source; their conditions may differ. Residues, ends and D or L forms follow the SMILES beside them. *: point of attachment. Cbz = O=C(OCc1ccccc1)*"}
{"smiles": "COc1ccc(C2=N[C@@H](c3ccc(Cl)cc3)[C@@H](c3ccc(Cl)cc3)N2C(=O)N2CCNC(=O)C2)c(OC(C)C)c1", "note": "[Nutlin-3]", "values": [{"measurement": "cell viability SJSA-1", "setting": "[1]", "value": "very sensitive; also recorded: more cytotoxic than SAH-p53-8 in SJSA-1 cells"}, {"measurement": "cell viability SJSA-X", "setting": "[2]", "value": "little to no response"}, {"measurement": "cell viability JEG-3", "setting": "[3]", "value": "little to no response; also recorded: most resistant to Nutlin-3"}, {"measurement": "cell viability MCF-7", "setting": "[4]", "value": "modestly sensitive"}, {"measurement": "cell viability HCT116", "setting": "[5]", "value": "modestly sensitive"}, {"measurement": "cell viability HCT116 deficient in p53", "setting": "[6]", "value": "completely insensitive"}, {"measurement": "cell viability A431", "setting": "[7]", "value": "similarly unaffected"}, {"measurement": "p53 levels", "setting": "[8]", "value": "an increase in p53 levels was observed"}, {"measurement": "p53-HDMX complex", "setting": "[9]; 20 µM, 6 h, anti-HDMX IP, Figure 4A", "value": "p53-HDMX complexes were preserved, if not increased"}, {"measurement": "caspase-3/7 activation", "setting": "[10]", "value": "little effect"}, {"measurement": "p53-HDMX complex", "setting": "[11]", "value": "appearance of the inhibitory p53-HDMX complex"}, {"measurement": "single-agent effect in synergy study", "setting": "[12]", "value": "ineffective as a single agent"}, {"measurement": "sensitivity of MCF-7 to Nutlin-3", "setting": "[13]", "value": "only modestly sensitive"}, {"measurement": "anti-tumor efficacy", "setting": "[14]", "value": "exhibits anti-tumor efficacy"}, {"measurement": "inhibition of HDM2", "setting": "[15]", "value": "inhibits HDM2"}, {"measurement": "cell cycle arrest and apoptosis", "setting": "[16]", "value": "triggers cell cycle arrest and apoptosis"}, {"measurement": "p53 levels", "setting": "[17]", "value": "can elevate p53 levels in MCF-7 cells"}, {"measurement": "viability of normal human fibroblasts WS1", "setting": "[18]", "value": "no impact on the viability of normal human fibroblasts"}]}
{"smiles": "CC(C)C[C@@H](C=O)NC(=O)[C@H](CC(C)C)NC(=O)[C@H](CC(C)C)NC(=O)OCc1ccccc1", "note": "[MG-132] (Cbz-Leu-Leu-Leu-aldehyde)", "values": [{"measurement": "p53-HDMX complex in the presence of MG-132", "setting": "[9]; 0–20 µM SAH-p53-8 with 10 µM MG-132, 6 h, Figure 4B", "value": "increased p53-HDMX complex"}]}
